This is an account of results in paper PMC10924921, “Mi-2β promotes immune evasion in melanoma by activating EZH2 methylation” (Nature Communications, 2024).

What all share (test): biochemical
Parameters in all cases: KINOMEscan active-site competition binding panel (468 kinase assays), per cent of control at 1000 nM
Conditions in all cases: KINOMEscan per cent of control (binding competition); read-out: Percent Control

One test deals with FLT3(ITD) (Homo sapiens, UniProt P36888, ITD). The source says:
(§1) Figure S7 / Percent Control

A further test has as its target FGFR2 (Homo sapiens, UniProt P21802).
From the text: as §1

Another test concerns the target T1, ASK1 (Homo sapiens, UniProt Q99683).
T1 construct: gene MAP3K5
From the text: as §1

For a further test, the target named is T2, CDC2L1 (Homo sapiens, UniProt P21127).
T2 construct: gene CDK11B
From the text: as §1

For another test, the target named is EPHA4 (Homo sapiens, UniProt P54764).
From the text: as §1

The target of the next test is IRAK4 (Homo sapiens, UniProt Q9NWZ3).
From the text: as §1

For the next test, the target named is ALK(C1156Y) (Homo sapiens, UniProt Q9UM73, C1156Y).
From the text: as §1

The target in test [1] is T3, ABL1(H396P)-nonphosphorylated (Homo sapiens, UniProt P00519, H396P).
T3 construct: nonphosphorylated
From the text: as §1

A further test addresses CLK1 (Homo sapiens, UniProt P49759).
From the text: as §1

Test [2] addresses T4, ABL1(H396P)-phosphorylated (Homo sapiens, UniProt P00519, H396P).
T4 construct: phosphorylated
From the text: as §1

In the next test the target is BMPR1B (Homo sapiens, UniProt O00238).
From the text: as §1

In the next test the target is STK16 (Homo sapiens, UniProt O75716).
From the text: as §1

In the next test the target is T5, DRAK2 (Homo sapiens, UniProt O94768).
T5 construct: gene STK17B
From the text: as §1

The next test deals with AXL (Homo sapiens, UniProt P30530).
From the text: as §1

Another test addresses T6, YANK2 (Homo sapiens, UniProt Q9NY57).
T6 construct: gene STK32B
From the text: as §1

The target of the next test is T7, VPS34 (Homo sapiens, UniProt Q8NEB9).
T7 construct: gene PIK3C3
From the text: as §1

The next test addresses PRKCE (Homo sapiens, UniProt Q02156).
From the text: as §1

A further test concerns the target PLK1 (Homo sapiens, UniProt P53350).
From the text: as §1

A further test addresses NEK11 (Homo sapiens, UniProt Q8NG66).
From the text: as §1

Another test has as its target PIK3CA(M1043I) (Homo sapiens, UniProt P42336, M1043I).
From the text: as §1

A further test deals with PIK3C2B (Homo sapiens, UniProt O00750).
From the text: as §1

In a further test the target is KIT(D816H) (Homo sapiens, UniProt P10721, D816H).
From the text: as §1

For a further test, the target named is PRKCD (Homo sapiens, UniProt Q05655).
From the text: as §1

A further test concerns the target T8, ERK2 (Homo sapiens, UniProt P28482).
T8 construct: gene MAPK1
From the text: as §1

PLK1, sequence (P53350 whole entry): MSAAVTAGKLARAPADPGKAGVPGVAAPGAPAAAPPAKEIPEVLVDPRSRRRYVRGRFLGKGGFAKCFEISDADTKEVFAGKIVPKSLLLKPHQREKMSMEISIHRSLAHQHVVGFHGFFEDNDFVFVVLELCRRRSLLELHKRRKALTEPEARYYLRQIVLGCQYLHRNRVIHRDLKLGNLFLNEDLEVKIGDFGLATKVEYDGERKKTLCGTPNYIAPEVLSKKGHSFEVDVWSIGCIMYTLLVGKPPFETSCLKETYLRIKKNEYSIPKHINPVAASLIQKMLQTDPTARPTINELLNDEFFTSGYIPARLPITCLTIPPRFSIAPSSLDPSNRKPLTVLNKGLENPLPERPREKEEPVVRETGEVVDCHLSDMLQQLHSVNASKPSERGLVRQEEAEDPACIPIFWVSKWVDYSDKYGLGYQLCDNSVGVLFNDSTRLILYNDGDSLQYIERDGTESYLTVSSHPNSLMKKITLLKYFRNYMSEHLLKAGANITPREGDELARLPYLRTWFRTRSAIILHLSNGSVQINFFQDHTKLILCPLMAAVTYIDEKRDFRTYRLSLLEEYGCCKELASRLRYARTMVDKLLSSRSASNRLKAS
T7 sequence (Q8NEB9 whole entry): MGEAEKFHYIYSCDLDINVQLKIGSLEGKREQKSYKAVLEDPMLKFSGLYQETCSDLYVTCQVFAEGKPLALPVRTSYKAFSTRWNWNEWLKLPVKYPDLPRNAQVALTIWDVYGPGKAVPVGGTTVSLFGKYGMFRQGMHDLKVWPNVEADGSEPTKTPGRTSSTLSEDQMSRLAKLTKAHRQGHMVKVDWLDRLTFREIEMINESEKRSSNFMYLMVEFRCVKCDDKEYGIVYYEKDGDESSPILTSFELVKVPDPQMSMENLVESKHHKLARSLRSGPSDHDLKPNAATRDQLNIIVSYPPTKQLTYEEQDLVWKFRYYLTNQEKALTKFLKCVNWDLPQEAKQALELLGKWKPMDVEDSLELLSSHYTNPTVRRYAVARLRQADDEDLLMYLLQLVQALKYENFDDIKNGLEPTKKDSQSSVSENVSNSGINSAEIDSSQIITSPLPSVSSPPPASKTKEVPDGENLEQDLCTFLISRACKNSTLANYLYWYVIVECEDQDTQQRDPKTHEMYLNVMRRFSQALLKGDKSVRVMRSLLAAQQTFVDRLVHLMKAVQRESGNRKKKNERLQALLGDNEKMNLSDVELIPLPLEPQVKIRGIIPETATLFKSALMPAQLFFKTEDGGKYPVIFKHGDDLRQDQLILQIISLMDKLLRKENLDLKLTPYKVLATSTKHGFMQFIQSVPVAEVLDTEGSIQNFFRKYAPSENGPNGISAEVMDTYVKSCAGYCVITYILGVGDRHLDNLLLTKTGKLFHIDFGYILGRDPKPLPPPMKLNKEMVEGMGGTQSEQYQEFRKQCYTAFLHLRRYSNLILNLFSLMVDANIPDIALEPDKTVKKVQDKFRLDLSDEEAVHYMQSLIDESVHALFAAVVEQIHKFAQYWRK
T6 sequence (Q9NY57 whole entry): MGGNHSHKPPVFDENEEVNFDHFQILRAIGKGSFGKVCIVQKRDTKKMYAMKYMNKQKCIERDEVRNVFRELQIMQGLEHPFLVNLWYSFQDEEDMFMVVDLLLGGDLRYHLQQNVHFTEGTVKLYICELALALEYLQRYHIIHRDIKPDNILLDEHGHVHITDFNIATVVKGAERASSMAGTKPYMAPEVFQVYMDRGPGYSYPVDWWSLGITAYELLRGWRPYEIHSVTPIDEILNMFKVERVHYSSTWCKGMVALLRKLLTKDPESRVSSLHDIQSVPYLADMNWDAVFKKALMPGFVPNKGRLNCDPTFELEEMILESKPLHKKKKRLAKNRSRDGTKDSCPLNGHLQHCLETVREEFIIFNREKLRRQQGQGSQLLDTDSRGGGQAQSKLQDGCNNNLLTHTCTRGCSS
PIK3CA(M1043I), sequence (P42336 whole entry M1043I): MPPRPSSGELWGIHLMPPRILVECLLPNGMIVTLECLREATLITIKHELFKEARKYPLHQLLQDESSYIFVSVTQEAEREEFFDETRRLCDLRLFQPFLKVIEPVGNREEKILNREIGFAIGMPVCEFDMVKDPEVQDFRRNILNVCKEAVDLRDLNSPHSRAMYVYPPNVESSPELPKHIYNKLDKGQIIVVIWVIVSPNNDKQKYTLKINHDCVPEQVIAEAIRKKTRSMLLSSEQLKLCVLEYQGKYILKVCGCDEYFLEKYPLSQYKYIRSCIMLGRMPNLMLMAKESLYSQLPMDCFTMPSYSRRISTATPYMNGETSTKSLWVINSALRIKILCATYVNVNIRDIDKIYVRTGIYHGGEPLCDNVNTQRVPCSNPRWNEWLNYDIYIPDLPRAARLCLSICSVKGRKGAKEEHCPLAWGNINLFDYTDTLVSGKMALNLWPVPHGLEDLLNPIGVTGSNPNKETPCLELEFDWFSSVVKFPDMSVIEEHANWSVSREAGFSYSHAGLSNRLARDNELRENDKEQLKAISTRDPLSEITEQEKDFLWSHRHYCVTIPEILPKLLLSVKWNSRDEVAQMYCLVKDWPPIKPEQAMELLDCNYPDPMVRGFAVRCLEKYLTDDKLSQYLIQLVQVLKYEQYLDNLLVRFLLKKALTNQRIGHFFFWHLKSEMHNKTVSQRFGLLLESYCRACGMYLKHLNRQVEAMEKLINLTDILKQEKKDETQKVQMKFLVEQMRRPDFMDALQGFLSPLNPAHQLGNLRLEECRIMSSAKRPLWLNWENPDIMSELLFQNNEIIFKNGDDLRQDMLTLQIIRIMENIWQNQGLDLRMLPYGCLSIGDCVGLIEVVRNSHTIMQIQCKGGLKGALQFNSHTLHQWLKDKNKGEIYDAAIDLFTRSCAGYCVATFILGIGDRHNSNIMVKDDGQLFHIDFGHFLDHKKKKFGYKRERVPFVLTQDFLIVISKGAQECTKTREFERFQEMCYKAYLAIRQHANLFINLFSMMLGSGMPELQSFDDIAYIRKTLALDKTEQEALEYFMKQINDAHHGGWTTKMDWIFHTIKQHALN
PRKCE, sequence (Q02156 whole entry): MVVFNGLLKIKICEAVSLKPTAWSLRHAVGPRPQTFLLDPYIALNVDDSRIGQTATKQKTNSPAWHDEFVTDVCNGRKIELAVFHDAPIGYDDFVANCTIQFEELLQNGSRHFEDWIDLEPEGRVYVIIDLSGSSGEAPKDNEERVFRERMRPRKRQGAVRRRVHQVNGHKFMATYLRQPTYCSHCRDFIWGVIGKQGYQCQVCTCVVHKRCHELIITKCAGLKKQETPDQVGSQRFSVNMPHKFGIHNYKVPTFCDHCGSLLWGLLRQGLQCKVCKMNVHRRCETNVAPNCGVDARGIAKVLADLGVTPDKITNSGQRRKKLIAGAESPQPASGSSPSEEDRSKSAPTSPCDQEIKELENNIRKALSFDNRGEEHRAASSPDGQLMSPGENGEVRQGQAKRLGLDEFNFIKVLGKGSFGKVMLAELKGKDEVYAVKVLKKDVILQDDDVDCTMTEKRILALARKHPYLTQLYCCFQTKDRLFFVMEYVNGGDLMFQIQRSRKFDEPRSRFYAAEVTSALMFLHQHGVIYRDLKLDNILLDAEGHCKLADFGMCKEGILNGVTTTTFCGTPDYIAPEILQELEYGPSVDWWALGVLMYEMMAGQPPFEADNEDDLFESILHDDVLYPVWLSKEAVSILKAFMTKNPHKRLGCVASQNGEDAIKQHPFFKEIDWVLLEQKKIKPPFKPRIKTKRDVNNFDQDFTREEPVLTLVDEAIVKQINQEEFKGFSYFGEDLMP
IRAK4, sequence (Q9NWZ3 whole entry): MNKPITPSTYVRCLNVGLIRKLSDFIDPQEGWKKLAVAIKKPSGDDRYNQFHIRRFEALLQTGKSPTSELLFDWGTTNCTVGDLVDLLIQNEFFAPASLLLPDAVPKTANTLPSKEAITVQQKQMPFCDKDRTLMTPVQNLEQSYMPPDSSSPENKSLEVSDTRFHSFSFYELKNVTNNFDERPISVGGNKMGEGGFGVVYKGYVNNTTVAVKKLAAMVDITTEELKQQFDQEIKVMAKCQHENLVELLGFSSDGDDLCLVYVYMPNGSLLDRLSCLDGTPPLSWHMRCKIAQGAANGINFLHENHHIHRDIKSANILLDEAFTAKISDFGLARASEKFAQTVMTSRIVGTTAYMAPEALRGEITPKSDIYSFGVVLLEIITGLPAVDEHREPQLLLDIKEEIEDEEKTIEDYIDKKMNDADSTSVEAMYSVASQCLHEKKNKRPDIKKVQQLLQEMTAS
T8 sequence (P28482 whole entry): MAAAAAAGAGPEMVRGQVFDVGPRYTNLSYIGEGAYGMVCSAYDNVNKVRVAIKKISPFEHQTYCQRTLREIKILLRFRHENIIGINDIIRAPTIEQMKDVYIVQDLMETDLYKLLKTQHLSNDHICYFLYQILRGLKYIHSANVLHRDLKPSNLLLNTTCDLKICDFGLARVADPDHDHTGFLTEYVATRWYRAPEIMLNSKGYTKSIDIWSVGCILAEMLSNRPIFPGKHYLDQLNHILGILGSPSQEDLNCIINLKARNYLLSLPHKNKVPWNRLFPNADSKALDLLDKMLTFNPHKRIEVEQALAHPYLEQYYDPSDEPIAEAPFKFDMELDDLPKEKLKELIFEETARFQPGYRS
T5 sequence (O94768 whole entry): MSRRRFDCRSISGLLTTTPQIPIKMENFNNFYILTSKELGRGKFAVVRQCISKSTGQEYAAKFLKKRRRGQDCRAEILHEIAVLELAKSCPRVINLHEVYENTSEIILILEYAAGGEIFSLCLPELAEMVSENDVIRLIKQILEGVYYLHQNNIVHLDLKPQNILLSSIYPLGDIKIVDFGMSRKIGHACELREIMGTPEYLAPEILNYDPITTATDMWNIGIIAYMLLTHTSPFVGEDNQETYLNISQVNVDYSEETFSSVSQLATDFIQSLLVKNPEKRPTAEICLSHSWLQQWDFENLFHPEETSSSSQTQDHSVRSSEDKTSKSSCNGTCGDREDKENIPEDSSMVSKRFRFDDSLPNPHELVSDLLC

Consider `Cn1c(=O)[nH]c2ccc(-c3cccc(C(=O)NC4CCn5ccnc5C4)c3)cc21` (stereo not drawn) [Z36-MP5], for which the remaining binding at 1 µM on FLT3(ITD) worked out at 92%; at FGFR2 it was 37%; on ASK1 it was 75%; at CDC2L1, 88%; at EPHA4, 58%; at IRAK4 it was 78%. Besides, the remaining binding at 1 µM on ALK(C1156Y) turned out to be 92%; in [1] it was 69%; at CLK1, 96%; in test [2], 82%; at BMPR1B it was 55%; at STK16, 31%. For the same compound, the remaining binding at 1 µM amounted to 79% on DRAK2; 94% at AXL; 56% at YANK2; 49% on VPS34; 100% at PRKCE; 70% at PLK1. In addition, the remaining binding at 1 µM on NEK11 was determined as 33%; on PIK3CA(M1043I), 83%; on PIK3C2B, 87%; on KIT(D816H), 78%; at PRKCD it was 97%; at ERK2, 81%.
